# Reference: ChEMBL document CHEMBL4680285, “Aminothiazolones as potent, selective and cell active inhibitors of the PIM kinase family” (Bioorg Med Chem, 2020)
# What was measured:
# [1] = Half life in mouse liver microsomes; assay type: ADME, Microsome
# [2] = Half life in mouse liver S9 fraction; assay type: ADME, subcellular
Compound,half-life [1],half-life [2]
N=C1NC(=O)/C(=C/c2csc(-c3ccc(C(F)(F)F)cc3)n2)S1,> 100 min,–
O=C1NC(=S)S/C1=C\c1csc(-c2ccc(C(F)(F)F)cc2)n1,49 min,–
CN(c1cccc(-c2nc(/C=C3\SC(NCC(C)(C)CO)=NC3=O)cs2)c1)S(C)(=O)=O,5.68 min,–
CN1CCC(CNC2=NC(=O)/C(=C/c3csc(-c4ccc(C(F)(F)F)cc4)n3)S2)CC1,> 120 min,–
CC(C)(CO)CNC1=NC(=O)/C(=C/c2csc(-c3cccc(F)c3O)n2)S1,–,44.4 min
CN1CCC(CNC2=NC(=O)/C(=C/c3ccc(-c4cccc(Cl)c4)o3)S2)CC1,> 120 min,–
CN1CCC(CNC2=NC(=O)/C(=C/c3csc(-c4cccc(N(C)S(C)(=O)=O)c4)n3)S2)CC1,27.5 min,–
CN(C)S(=O)(=O)Nc1cccc(-c2nc(/C=C3\SC(NCC(C)(C)CO)=NC3=O)cs2)c1,7.56 min,–
O=C1N=C(NCC2CCN(CCO)CC2)S/C1=C\c1csc(-c2ccccc2O)n1,–,> 120 min
O=C1N=C(NCC2(CO)CC2)S/C1=C\c1csc(-c2ccccc2O)n1,–,28.9 min
O=C1N=C(N[C@H]2CCC[C@@H]2CO)S/C1=C\c1csc(-c2cccc(F)c2O)n1 (stereo in doubt),–,22.1 min

# The remaining lines, values ahead:
half-life [1],half-life [2],Compound
–,45.6 min,CC(C)(CO)CNC1=NC(=O)/C(=C/c2csc(-c3ccc(F)cc3O)n2)S1
> 120 min,–,O=C1N=C(NCC2(CO)CCC2)S/C1=C\c1csc(-c2ccc(OC(F)(F)F)cc2)n1
781 min,–,O=C1N=C(N[C@H]2CC[C@H](O)CC2)S/C1=C\c1csc(-c2ccc(OC(F)(F)F)cc2)n1
> 120 min,–,CC(C)(CO)CNC1=NC(=O)/C(=C/c2csc(-c3cccc(OC(F)(F)F)c3)n2)S1
> 120 min,–,O=C1N=C(NCC2(CO)CC2)S/C1=C\c1csc(-c2ccc(OC(F)(F)F)cc2)n1
> 120 min,–,CN(C)CCNC1=NC(=O)/C(=C/c2csc(-c3ccc(OC(F)(F)F)cc3)n2)S1
–,84.2 min,CC(C)(CO)CNC1=NC(=O)/C(=C/c2csc(-c3cccc(OC(F)(F)F)c3O)n2)S1
> 120 min,–,CC(C)(CO)CNC1=NC(=O)/C(=C/c2csc(-c3ccc(OC(F)(F)F)cc3)n2)S1
